Like-named read-outs stand apart in the source and are kept apart here.
Columns and labels:
[1] = target: T1, AEA-DA lipid probe targets in Neuro2a cells (Mus musculus, UniProt Q8BVE8)
T1 sequence (Q8BVE8 1-1365): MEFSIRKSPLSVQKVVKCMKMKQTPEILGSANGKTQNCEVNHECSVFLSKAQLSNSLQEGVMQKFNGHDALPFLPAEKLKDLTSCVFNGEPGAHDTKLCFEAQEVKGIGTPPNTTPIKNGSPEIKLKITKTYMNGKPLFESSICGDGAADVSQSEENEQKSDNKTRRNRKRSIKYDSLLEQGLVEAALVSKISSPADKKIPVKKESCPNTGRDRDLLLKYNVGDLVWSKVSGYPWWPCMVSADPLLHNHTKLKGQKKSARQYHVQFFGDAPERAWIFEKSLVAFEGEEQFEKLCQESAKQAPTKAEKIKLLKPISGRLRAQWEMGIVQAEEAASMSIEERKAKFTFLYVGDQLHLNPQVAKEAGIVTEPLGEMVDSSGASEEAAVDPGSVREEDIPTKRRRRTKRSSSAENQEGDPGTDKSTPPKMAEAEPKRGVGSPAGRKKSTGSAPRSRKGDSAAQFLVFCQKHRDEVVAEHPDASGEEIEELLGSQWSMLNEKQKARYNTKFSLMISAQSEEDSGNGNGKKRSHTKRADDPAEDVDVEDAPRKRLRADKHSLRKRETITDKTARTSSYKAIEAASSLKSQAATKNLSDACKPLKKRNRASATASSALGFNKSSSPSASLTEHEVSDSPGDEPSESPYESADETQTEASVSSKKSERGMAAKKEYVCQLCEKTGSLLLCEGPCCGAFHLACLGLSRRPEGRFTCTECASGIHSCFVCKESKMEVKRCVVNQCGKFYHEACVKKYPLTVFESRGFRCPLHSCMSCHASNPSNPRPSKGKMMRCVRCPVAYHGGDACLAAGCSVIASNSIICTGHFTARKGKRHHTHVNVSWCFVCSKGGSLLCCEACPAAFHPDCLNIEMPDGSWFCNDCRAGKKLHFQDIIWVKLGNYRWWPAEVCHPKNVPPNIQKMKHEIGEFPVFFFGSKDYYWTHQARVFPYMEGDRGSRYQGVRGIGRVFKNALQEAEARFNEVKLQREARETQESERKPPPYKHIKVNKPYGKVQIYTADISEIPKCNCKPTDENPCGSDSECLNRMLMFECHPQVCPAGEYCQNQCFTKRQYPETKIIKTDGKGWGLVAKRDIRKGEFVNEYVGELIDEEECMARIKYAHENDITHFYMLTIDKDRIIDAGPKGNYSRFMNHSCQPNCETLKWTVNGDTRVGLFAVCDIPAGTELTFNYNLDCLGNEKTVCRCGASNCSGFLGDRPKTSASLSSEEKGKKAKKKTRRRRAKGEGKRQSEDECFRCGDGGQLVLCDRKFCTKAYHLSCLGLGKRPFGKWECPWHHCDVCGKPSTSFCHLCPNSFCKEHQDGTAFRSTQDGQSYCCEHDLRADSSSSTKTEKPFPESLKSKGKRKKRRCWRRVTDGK

[2] = target: T2, AEA-DA lipid probe targets in Neuro2a cells (Mus musculus, UniProt Q11011)
T2 sequence (Q11011 1-920): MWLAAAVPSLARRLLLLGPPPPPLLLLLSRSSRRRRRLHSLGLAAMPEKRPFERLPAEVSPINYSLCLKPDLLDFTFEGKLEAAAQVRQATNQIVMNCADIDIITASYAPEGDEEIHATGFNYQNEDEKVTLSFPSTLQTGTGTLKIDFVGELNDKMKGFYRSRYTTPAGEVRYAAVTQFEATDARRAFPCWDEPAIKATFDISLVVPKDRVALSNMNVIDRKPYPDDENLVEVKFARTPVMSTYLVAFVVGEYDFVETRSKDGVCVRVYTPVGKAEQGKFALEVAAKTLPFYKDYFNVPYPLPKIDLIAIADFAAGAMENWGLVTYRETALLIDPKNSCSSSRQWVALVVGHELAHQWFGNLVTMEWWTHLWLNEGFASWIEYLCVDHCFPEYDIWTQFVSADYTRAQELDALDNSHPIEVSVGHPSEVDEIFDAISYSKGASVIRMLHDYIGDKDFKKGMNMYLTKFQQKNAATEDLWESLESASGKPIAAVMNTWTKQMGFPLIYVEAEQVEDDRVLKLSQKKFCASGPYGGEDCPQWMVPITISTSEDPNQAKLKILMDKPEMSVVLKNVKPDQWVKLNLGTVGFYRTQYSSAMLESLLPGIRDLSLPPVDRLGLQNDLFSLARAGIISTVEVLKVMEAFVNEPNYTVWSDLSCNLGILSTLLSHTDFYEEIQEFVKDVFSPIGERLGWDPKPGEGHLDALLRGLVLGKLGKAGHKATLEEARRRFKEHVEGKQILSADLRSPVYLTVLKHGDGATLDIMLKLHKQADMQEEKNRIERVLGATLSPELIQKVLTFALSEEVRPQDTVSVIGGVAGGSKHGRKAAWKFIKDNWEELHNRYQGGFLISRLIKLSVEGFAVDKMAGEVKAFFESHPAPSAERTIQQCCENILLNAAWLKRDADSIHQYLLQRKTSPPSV

SMILES	SILAC ratio Whsc1 ([1]; competitor 200 μM)	SILAC ratio Npepps ([2]; competitor 200 μM)	SILAC ratio Whsc1 ([1]; competitor 10 μM)	SILAC ratio Whsc1 ([1]; competitor 25 μM)	SILAC ratio Whsc1 ([1]; competitor 100 μM)	SILAC ratio Npepps ([2]; competitor 25 μM)	SILAC ratio Npepps ([2]; competitor 100 μM)
CCCCC/C=C\C/C=C\C/C=C\C/C=C\CCCC(=O)NCCO [AEA, anandamide, reference compound]	1.0	1.1					
CN1CCN(C(=O)c2[nH]c3ccc([N+](=O)[O-])cc3c2-c2ccccc2)CC1 [MJN228, (4-Methylpiperazin-1-yl)(5-nitro-3-phenyl-1H-indol-2-yl)methanone]			1.4	1.2	1.6	1.5	4.3
